Key:
STZ-treated mice = test: STZ-treated mice, third experiment (fasted): blood glucose, body weight, survival; assay type: in vivo
Protocol: The effects of CCompound1 on blood glucose level and body weight as well as survival were also examined in a third experiment. Animals weighing between 24.6-25.3 g were selected for this experiment with each group consisting of 6 mice. One group of mice (group 1) received no treatment over the entire experiment, while in the other two groups (groups 2-3), animals were injected (i.p.) with 210 mg/kg of STZ on day 0. Animals in group 3 were also injected (i.p.) with 4.5 mg per kg of CCompound1 once daily for 10 days starting 24 h prior to STZ treatment. CCompound1 and STZ were dissolved as previously indicated.
In this experiment the animals were fasted for 13-14 hours (fasted overnight from 6 p.m. to 7-8 a.m. and returned to normal diet from 8 a.m. to 6 p.m) prior to taking the blood samples.

[1] = test system: AR42J rat pancreatic tumor cell line; test: MTT proliferation of AR42J pancreatic tumor cells; assay type: cell-based; conditions: 96 h
Source text: In the Examples below, an MTT assay was used to determine the relative number of viable cells after treatments. This calorimetric assay is based on the ability of living cells, but not dead cells, to reduce 3-(4,5-dimethyl thiazol-2-yl)-2,5-diphenyltetrazolium bromide. [Carmichael, J, De Graff, W. G., Gazdar, A. F., Minna, J. D. and Mitchell, J. B. (1987) Evaluation of tetrazolium-based semiautomated calorimetric assay: Assessment of chemosensitivity testing. Cancer Res. 47, 936-942], which is hereby incorporated by reference. For this assay, cells were plated in 96-well plates, and the MTT assay was performed as described in the above article both in untreated and treated cell cultures. The MTT assay also was performed at the time when the treatment was started to allow for assessment of the proliferation and survival rates in the control and treated cell cultures. In the MTT assay, higher values mean proportionally higher numbers of viable cells.
The AR42J rat pancreatic tumor cell line, purchased from ATTC (catalog number: CRL-1492), was propagated in modified Ham's medium containing 20% fetal bovine serum. These cells, derived from a transplantable tumor of the exocrine pancreas, contain significant amounts of amylase and other exocrine enzymes and they produce tumors in athymic mice.
For the experiment, cells were split in 96-well plates at 15,000 cells per well. After 24 hours, the medium was changed for fresh medium (0 hour) and various concentrations of CCompound1 and CCompound3 were added and incubations continued for 96 hours. The MTT assay was used to determine the relative number of viable cells. From the data shown in TABLE 13, in the 2-25 μM concentration range CC compounds had only inhibitory effects on the proliferation of pancreatic cancer cells.

Cc1c(OCC(O)C[N+](C)(C)C)cc2c(=O)c3ccccc3sc2c1C.[Cl-] (stereo not drawn) [CCcompound1, [3-(3,4-Dimethyl-9-oxo-9H-thioxanthen-2-yloxy)-2-hydroxypropyl]trimethyl-ammonium chloride]
Blood glucose (STZ-treated mice; STZ 210 mg/kg i.p. day 0 + compound 4.5 mg/kg i.p. daily for 10 days from day −1, fasted, day −1): 2.1 ± 0.3 mM | Blood glucose (STZ-treated mice; STZ + compound 4.5 mg/kg i.p. daily for 10 days (stopped day 9), fasted, day 14): 11.8 ± 1.0 mM | Blood glucose (STZ-treated mice; STZ + compound 4.5 mg/kg i.p. daily for 10 days (stopped day 9), fasted, day 21): 12.5 ± 0.8 mM | Body weight (STZ-treated mice; STZ + compound 4.5 mg/kg i.p. daily for 10 days, day 0): 25.1 ± 0.5 g | Body weight (STZ-treated mice; STZ + compound 4.5 mg/kg i.p. daily for 10 days, day 3): 24.3 ± 1.0 g | Body weight (STZ-treated mice; STZ + compound 4.5 mg/kg i.p. daily for 10 days, day 5): 24.2 ± 0.9 g | Body weight (STZ-treated mice; STZ + compound 4.5 mg/kg i.p. daily for 10 days, day 7): 24.1 ± 0.7 g | Body weight (STZ-treated mice; STZ + compound 4.5 mg/kg i.p. daily for 10 days, day 9): 24.3 ± 0.8 g | Body weight (STZ-treated mice; STZ + compound 4.5 mg/kg i.p. daily for 10 days, day 11): 24.3 ± 0.9 g | Body weight (STZ-treated mice; STZ + compound 4.5 mg/kg i.p. daily for 10 days, day 13): 24.5 ± 1.1 g | Body weight (STZ-treated mice; STZ + compound 4.5 mg/kg i.p. daily for 10 days, day 15): 23.9 ± 0.4 g | Body weight (STZ-treated mice; STZ + compound 4.5 mg/kg i.p. daily for 10 days, day 17): 24.5 ± 1.1 g | Body weight (STZ-treated mice; STZ + compound 4.5 mg/kg i.p. daily for 10 days, day 21): 24.4 ± 1.0 g | Blood glucose (STZ-treated mice; STZ + compound 4.5 mg/kg i.p. daily for 10 days, fasted, day 0): 2.1 ± 0.2 mM | Blood glucose (STZ-treated mice; STZ + compound 4.5 mg/kg i.p. daily for 10 days, fasted, day 1): 6.7 ± 0.7 mM | Blood glucose (STZ-treated mice; STZ + compound 4.5 mg/kg i.p. daily for 10 days, fasted, day 2): 7.1 ± 0.5 mM | Blood glucose (STZ-treated mice; STZ + compound 4.5 mg/kg i.p. daily for 10 days, fasted, day 3): 7.2 ± 0.5 mM | Blood glucose (STZ-treated mice; STZ + compound 4.5 mg/kg i.p. daily for 10 days, fasted, day 4): 7.6 ± 0.4 mM | Blood glucose (STZ-treated mice; STZ + compound 4.5 mg/kg i.p. daily for 10 days, fasted, day 5): 8.2 ± 0.4 mM | Blood glucose (STZ-treated mice; STZ + compound 4.5 mg/kg i.p. daily for 10 days, fasted, day 6): 8.6 ± 0.3 mM | Blood glucose (STZ-treated mice; STZ + compound 4.5 mg/kg i.p. daily for 10 days, fasted, day 7): 9.3 ± 0.5 mM | Blood glucose (STZ-treated mice; STZ + compound 4.5 mg/kg i.p. daily for 10 days, fasted, day 8): 10.4 ± 0.7 mM | Blood glucose (STZ-treated mice; STZ + compound 4.5 mg/kg i.p. daily for 10 days, fasted, day 9): 11.0 ± 1.1 mM | mice alive on day 53 (STZ-treated mice; STZ + compound, 6 mice per group): 6 | body weight lost (STZ-treated mice; co-treated with compound and STZ, day 0 to day 21): 0.7 to 1.2 g | reduction of the effects of STZ on blood glucose level (STZ-treated mice; days 3 and 4): more than 50% | A540 (MTT, relative number of viable cells) ([1]; 2 μM): 1.092 ± 0.083 | A540 (MTT, relative number of viable cells) ([1]; 5 μM): 0.954 ± 0.080 | A540 (MTT, relative number of viable cells) ([1]; 10 μM): 0.882 ± 0.062 | A540 (MTT, relative number of viable cells) ([1]; 25 μM): 0.781 ± 0.090
